Assay results taken from patent publication US11286236B2, “Compound, agent and composition for the suppression of cancer growth” (Vector Vitale IP LLC, priority 2018, dated 2022).

Key:
[1] = tested on: Mouse B16 melanoma cells (MM-4 cell line); assay: Cytotoxic/cytostatic activity of E2+85Rbe and antitumor drug added simultaneously; assay type: cell-based
Procedure: The effects of the complex action of various doses of the investigated substances were evaluated using the concept of synergistic, additive and antagonistic effects of the drugs. The mathematics are detailed below. […] The effects were calculated using the Chou-Talalay method according to the following equation (“CI” refers to the “combination index”) (see T.-C. […] Where both the ^85Rb-enriched rubidium salt (referred to as “E2+^85Rbe”) and an AD were administered, they were administered simultaneously.

[2] = tested on: Mouse melanoma cells (MM-4 cell line); assay: Cytotoxic effect of E2+85Rbe and antitumor drug added 24 hours apart; assay type: cell-based
Procedure: The effectiveness of the method of the invention that comprises administering antitumor drugs and ^85Rb-enriched rubidium salt of N-benzoyl-N-(4-toluenesulfonyl)-o-phenylenediamine of formula I was measured in the experiment. […] Both orders were tested: AD administered first (Scheme 2, below), and AD administered second (Scheme 1, below).
Materials and Methods: Mouse melanoma cells (MM-4 cell line) were seeded into 96-well plates (TPP, Italy), in DMEM (Biowest, France) supplemented with 10% newborn calf serum (Biowest, France) and […] gentamicin (Sigma, USA) at a seeding density of 5×10^4 cells/ml. The cells were then cultured in an incubator with a humidified atmosphere of 5% CO2 in air at 37° C. The experiment was carried out in accordance with the three schemes given below. The experiment was started 24 hours after the cells were seeded. For this purpose, the agents used in the method were introduced into the appropriate wells. The following schemes of introduction were used for the study:
Scheme 1) The ^85Rb-enriched rubidium salt of N-benzoyl-N′-(4-toluenesulfonyl)-o-phenylenediamine of formula I was introduced at the first stage in the following amounts: 2.0 μg/ml, 1.0 μg/ml, 0, 5 μg/ml, and one antitumor drug was introduced at the second stage (after 24 hours).
Scheme 2) An AD was introduced at the first stage at doses as indicated in Scheme 1 above and ^85Rb-enriched rubidium salt of N-benzoyl-N′-(4-toluenesulfonyl)-o-phenylenediamine of formula I was introduced at the second stage (after 24 hours) at the following doses: 2.0 μg/ml, 1.0 μg/ml, 0.5 μg/ml.
After all the agents were added into the wells, the cells were incubated at 37° C. and 5% CO2 for another 72 hours (96 hours in total after the cells were seeded).
As in example 2, the cytotoxic effect was determined as the percentage of the cell number with respect to the control after their treatment in accordance with the claimed method. The effects of the drugs were evaluated visually, which allowed us to examine the morphological pattern of the cytotoxic action of the drugs, and by staining the cells with crystal violet, followed by OD measurement at an excitation wavelength of 540 nm using a MultiSkan microplate spectrophotometer.
The effects of the complex action of various doses of the investigated substances were evaluated using the concept of synergistic, additive and antagonistic effects of the drugs, as for Example 2, and calculating CI as described in Example 2.
Each table sets forth the % of MM-4 cells that survived in the presence of the drug doses indicated in the in vitro experiments described above, expressed as a percentage of the cells in the control wells.

SMILES: CN(C)/N=N/c1[nH]cnc1C(N)=O [dacarbazine]
- % surviving MM-4 cells ([1]; dacarbazine 2.5 μg/ml alone): 21 ± 2.4%
- % surviving MM-4 cells ([1]; dacarbazine 5 μg/ml alone): 18.1 ± 0.2%
- % surviving MM-4 cells ([1]; dacarbazine 10 μg/ml alone): 11.6 ± 3%
- % surviving MM-4 cells ([1]; dacarbazine 20 μg/ml alone): 7.8 ± 0.5%
- % surviving MM-4 cells ([1]; dacarbazine 40 μg/ml alone): 3.5 ± 0.7%
- % surviving MM-4 cells ([2]; dacarbazine 2.5 μg/ml alone, first stage): 21 ± 2.4%
- % surviving MM-4 cells ([2]; dacarbazine 2.5 μg/ml alone, second stage): 40.7 ± 0.7%
- % surviving MM-4 cells ([2]; dacarbazine 5 μg/ml alone, first stage): 18.1 ± 0.2%
- % surviving MM-4 cells ([2]; dacarbazine 5 μg/ml alone, second stage): 30 ± 2.4%
- % surviving MM-4 cells ([2]; dacarbazine 10 μg/ml alone, first stage): 11.6 ± 3%
- % surviving MM-4 cells ([2]; dacarbazine 10 μg/ml alone, second stage): 19 ± 4%
- % surviving MM-4 cells ([2]; dacarbazine 20 μg/ml alone, first stage): 7.8 ± 0.5%
- % surviving MM-4 cells ([2]; dacarbazine 20 μg/ml alone, second stage): 12.9 ± 2.9%
- % surviving MM-4 cells ([2]; dacarbazine 40 μg/ml alone, first stage): 3.5 ± 0.7%
- % surviving MM-4 cells ([2]; dacarbazine 40 μg/ml alone, second stage): 8.4 ± 1.2%

SMILES: COc1cccc2c1C(=O)c1c(O)c3c(c(O)c1C2=O)C[C@@](O)(C(=O)CO)C[C@@H]3O[C@H]1C[C@H](N)[C@H](O)[C@H](C)O1 [doxorubicin]
- % surviving MM-4 cells ([1]; doxorubicin 150 ng/ml alone): 14.4 ± 1.1%
- % surviving MM-4 cells ([1]; doxorubicin 175 ng/ml alone): 13 ± 0.1%
- % surviving MM-4 cells ([1]; doxorubicin 200 ng/ml alone): 9.1 ± 1.1%
- % surviving MM-4 cells ([1]; doxorubicin 300 ng/ml alone): 3.1 ± 0.1%
- % surviving MM-4 cells ([1]; doxorubicin 500 ng/ml alone): 0%
- % surviving MM-4 cells ([2]; doxorubicin 150 ng/ml alone, first stage): 14.4 ± 1.1%
- % surviving MM-4 cells ([2]; doxorubicin 150 ng/ml alone, second stage): 35.5 ± 0.8%
- % surviving MM-4 cells ([2]; doxorubicin 175 ng/ml alone, first stage): 13 ± 0.1%
- % surviving MM-4 cells ([2]; doxorubicin 200 ng/ml alone, first stage): 9.1 ± 1.1%
- % surviving MM-4 cells ([2]; doxorubicin 200 ng/ml alone, second stage): 24.8 ± 5.5%
- % surviving MM-4 cells ([2]; doxorubicin 300 ng/ml alone, first stage): 3.1 ± 0.1%
- % surviving MM-4 cells ([2]; doxorubicin 300 ng/ml alone, second stage): 12.2 ± 0.5%
- % surviving MM-4 cells ([2]; doxorubicin 500 ng/ml alone, first stage): 0%
- % surviving MM-4 cells ([2]; doxorubicin 500 ng/ml alone, second stage): 5.3 ± 0.9%

SMILES: CC(=O)O[C@H]1C(=O)[C@@]2(C)[C@H]([C@H](OC(=O)c3ccccc3)[C@]3(O)C[C@H](OC(=O)[C@H](O)[C@@H](NC(=O)c4ccccc4)c4ccccc4)C(C)=C1C3(C)C)[C@]1(OC(C)=O)CO[C@@H]1C[C@@H]2O [paclitaxel]
- % surviving MM-4 cells ([1]; paclitaxel 3 ng/ml alone): 80 ± 2.3%
- % surviving MM-4 cells ([1]; paclitaxel 7.5 ng/ml alone): 33.4 ± 1.4%
- % surviving MM-4 cells ([1]; paclitaxel 30 ng/ml alone): 7 ± 0.8%
- % surviving MM-4 cells ([1]; paclitaxel 3 μg/ml alone): 1.9 ± 0.2%
- % surviving MM-4 cells ([2]; paclitaxel 3 ng/ml alone, first stage): 80 ± 2.3%
- % surviving MM-4 cells ([2]; paclitaxel 3 ng/ml alone, second stage): 87.7 ± 6.7%
- % surviving MM-4 cells ([2]; paclitaxel 7.5 ng/ml alone, first stage): 33.4 ± 1.4%
- % surviving MM-4 cells ([2]; paclitaxel 7.5 ng/ml alone, second stage): 49 ± 1%
- % surviving MM-4 cells ([2]; paclitaxel 15 ng/ml alone, second stage): 37 ± 4.5%
- % surviving MM-4 cells ([2]; paclitaxel 30 ng/ml alone, first stage): 7 ± 0.8%
- % surviving MM-4 cells ([2]; paclitaxel 30 ng/ml alone, second stage): 29.2 ± 4.4%
- % surviving MM-4 cells ([2]; paclitaxel 3 μg/ml alone, first stage): 1.9 ± 0.2%

SMILES: CCC1=C[C@@H]2CN(C1)Cc1c([nH]c3ccccc13)[C@@](C(=O)OC)(c1cc3c(cc1OC)N(C)[C@H]1[C@@](O)(C(=O)OC)[C@H](OC(C)=O)[C@]4(CC)C=CCN5CC[C@]31[C@@H]54)C2 [vinorelbine]
- % surviving MM-4 cells ([1]; vinorelbine 1 ng/ml alone): 10 ± 0.1%
- % surviving MM-4 cells ([1]; vinorelbine 5 ng/ml alone): 9.5 ± 0.5%
- % surviving MM-4 cells ([1]; vinorelbine 25 ng/ml alone): 2 ± 0.8%
- % surviving MM-4 cells ([1]; vinorelbine 50 ng/ml alone): 2 ± 1%
- % surviving MM-4 cells ([1]; vinorelbine 200 ng/ml alone): 1%
- % surviving MM-4 cells ([2]; vinorelbine 1 ng/ml alone, first stage): 10 ± 0.1%
- % surviving MM-4 cells ([2]; vinorelbine 1 ng/ml alone, second stage): 26 ± 2.5%
- % surviving MM-4 cells ([2]; vinorelbine 5 ng/ml alone, first stage): 9.5 ± 0.5%
- % surviving MM-4 cells ([2]; vinorelbine 5 ng/ml alone, second stage): 17.9 ± 0.9%
- % surviving MM-4 cells ([2]; vinorelbine 25 ng/ml alone, first stage): 2 ± 0.8%
- % surviving MM-4 cells ([2]; vinorelbine 25 ng/ml alone, second stage): 7.9 ± 0.5%
- % surviving MM-4 cells ([2]; vinorelbine 50 ng/ml alone, first stage): 2 ± 1%
- % surviving MM-4 cells ([2]; vinorelbine 50 ng/ml alone, second stage): 6.4 ± 0.4%
- % surviving MM-4 cells ([2]; vinorelbine 200 ng/ml alone, first stage): 1%
- % surviving MM-4 cells ([2]; vinorelbine 200 ng/ml alone, second stage): 5.6 ± 0.6%
